Results taken from PubChem BioAssay AID1963868 (Molecular Pharmacology Branch, DTP, NCI, 2024).

Tested on: KRAS PDC tumor spheroids (HUVEC+MSC), viability
Experiment: Anticancer human tumor 254851-301-R-J1-PDC patient-derived colon carcinoma cell line growth inhibition [KRAS2]
Conditions: for viability, T/C: stronger effect = lower value
Outline: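 KRAS-mutant tumor cells were grown as spheroids with HUVEC endothelial cells and human MSCs as stroma. Targeted agents were tested alone and with KRAS pathway inhibitors. Doses started at or near clinical Cmax, or 10 microM, descending half-log.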

[1] = curve of first compound, second compound 0.0316 µM
[2] = curve of first compound, second compound 0.1 µM
[3] = curve of first compound, second compound 0.316 µM
[4] = curve of first compound, second compound 1 µM
[5] = curve of first compound, second compound 3.16 µM
[6] = second compound 0.0316 µM, first compound 0.0316 µM
[7] = second compound 0.0316 µM, first compound 0.1 µM
[8] = second compound 0.0316 µM, first compound 0.316 µM
[9] = second compound 0.0316 µM, first compound 1 µM
[10] = second compound 0.0316 µM, first compound 3.16 µM
[11] = second compound 0.0316 µM, first compound 10 µM
[12] = second compound 0.1 µM, first compound 0.0316 µM
[13] = second compound 0.1 µM, first compound 0.1 µM
[14] = second compound 0.1 µM, first compound 0.316 µM
[15] = second compound 0.1 µM, first compound 1 µM
[16] = second compound 0.1 µM, first compound 3.16 µM
[17] = second compound 0.1 µM, first compound 10 µM
[18] = second compound 0.316 µM, first compound 0.0316 µM
[19] = second compound 0.316 µM, first compound 0.1 µM
[20] = second compound 0.316 µM, first compound 0.316 µM
[21] = second compound 0.316 µM, first compound 1 µM
[22] = second compound 0.316 µM, first compound 3.16 µM
[23] = second compound 0.316 µM, first compound 10 µM
[24] = second compound 1 µM, first compound 0.0316 µM
[25] = second compound 1 µM, first compound 0.1 µM
[26] = second compound 1 µM, first compound 0.316 µM
[27] = second compound 1 µM, first compound 1 µM
[28] = second compound 1 µM, first compound 3.16 µM
[29] = second compound 1 µM, first compound 10 µM
[30] = second compound 3.16 µM, first compound 0.0316 µM
[31] = second compound 3.16 µM, first compound 0.1 µM
[32] = second compound 3.16 µM, first compound 0.316 µM
[33] = second compound 3.16 µM, first compound 1 µM
[34] = second compound 3.16 µM, first compound 3.16 µM
[35] = second compound 3.16 µM, first compound 10 µM
[36] = curve of first compound, second compound 10 µM
[37] = second compound 0.1 µM, first compound 0.00316 µM
[38] = second compound 0.1 µM, first compound 0.01 µM
[39] = second compound 0.316 µM, first compound 0.00316 µM
[40] = second compound 0.316 µM, first compound 0.01 µM
[41] = second compound 1 µM, first compound 0.00316 µM
[42] = second compound 1 µM, first compound 0.01 µM
[43] = second compound 3.16 µM, first compound 0.00316 µM
[44] = second compound 3.16 µM, first compound 0.01 µM
[45] = second compound 10 µM, first compound 0.00316 µM
[46] = second compound 10 µM, first compound 0.01 µM
[47] = second compound 10 µM, first compound 0.0316 µM
[48] = second compound 10 µM, first compound 0.1 µM
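Note: spheroids exposed to compounds for seven days before readout.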
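Throughout, for viability, T/C: 100% = DMSO vehicle control luminescence of the spheroids.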

## CC1(C)CCC(CN2CCN(c3ccc(C(=O)NS(=O)(=O)c4ccc(NCC5CCOCC5)c([N+](=O)[O-])c4)c(Oc4cnc5[nH]ccc5c4)c3)CC2)=C(c2ccc(Cl)cc2)C1 + C=CC(=O)N1CCN(c2nc(OCC3CCCN3C)nc3c2CCN(c2cccc4cccc(C)c24)C3)CC1CC#N
[1]
  IC50: > 10 µM
[2]
  IC50: > 10 µM
[3]
  IC50: > 10 µM
[4]
  IC50: 6.39 µM
[5]
  IC50: 0.371 µM
[6]
  viability, T/C: 95.8%
[7]
  viability, T/C: 101%
[8]
  viability, T/C: 97.3%
[9]
  viability, T/C: 98%
[10]
  viability, T/C: 95.6%
[11]
  viability, T/C: 90%
[12]
  viability, T/C: 98.5%
[13]
  viability, T/C: 106%
[14]
  viability, T/C: 92.4%
[15]
  viability, T/C: 100%
[16]
  viability, T/C: 90.3%
[17]
  viability, T/C: 86.1%
[18]
  viability, T/C: 106%
[19]
  viability, T/C: 107%
[20]
  viability, T/C: 80.9%
[21]
  viability, T/C: 85.3%
[22]
  viability, T/C: 81%
[23]
  viability, T/C: 73.8%
[24]
  viability, T/C: 88%
[25]
  viability, T/C: 106%
[26]
  viability, T/C: 101%
[27]
  viability, T/C: 81.4%
[28]
  viability, T/C: 70.7%
[29]
  viability, T/C: 37.8%
[30]
  viability, T/C: 57%
[31]
  viability, T/C: 56.2%
[32]
  viability, T/C: 45%
[33]
  viability, T/C: 36.4%
[34]
  viability, T/C: 0.19%
[35]
  viability, T/C: 0.19%

## Cn1ncnc1[C@H]1c2n[nH]c(=O)c3cc(F)cc(c23)N[C@@H]1c1ccc(F)cc1 + CNCc1ccccc1-c1csc(C(C)Nc2nc(C)nc3cc(OC)c(OC)cc23)c1
[2]
  IC50: > 0.1 µM
[3]
  IC50: > 0.1 µM
[4]
  IC50: > 0.1 µM
[5]
  IC50: > 0.1 µM
[36]
  IC50: < 0.000316 µM
Second compound 0.1 µM, first compound 0.000316 µM
  viability, T/C: 94.9%
Second compound 0.1 µM, first compound 0.001 µM
  viability, T/C: 90.7%
[37]
  viability, T/C: 92.4%
[38]
  viability, T/C: 96.9%
[12]
  viability, T/C: 95.6%
[13]
  viability, T/C: 93.6%
Second compound 0.316 µM, first compound 0.000316 µM
  viability, T/C: 90.6%
Second compound 0.316 µM, first compound 0.001 µM
  viability, T/C: 95.6%
[39]
  viability, T/C: 98.8%
[40]
  viability, T/C: 85.4%
[18]
  viability, T/C: 94.5%
[19]
  viability, T/C: 92.5%
Second compound 1 µM, first compound 0.000316 µM
  viability, T/C: 101%
Second compound 1 µM, first compound 0.001 µM
  viability, T/C: 97.8%
[41]
  viability, T/C: 93.9%
[42]
  viability, T/C: 84%
[24]
  viability, T/C: 86.9%
[25]
  viability, T/C: 95.2%
Second compound 3.16 µM, first compound 0.000316 µM
  viability, T/C: 66.3%
Second compound 3.16 µM, first compound 0.001 µM
  viability, T/C: 65%
[43]
  viability, T/C: 64.3%
[44]
  viability, T/C: 63.7%
[30]
  viability, T/C: 67.9%
[31]
  viability, T/C: 63.6%
Second compound 10 µM, first compound 0.000316 µM
  viability, T/C: 0.23%
Second compound 10 µM, first compound 0.001 µM
  viability, T/C: 0.23%
[45]
  viability, T/C: 0.25%
[46]
  viability, T/C: 0.21%
[47]
  viability, T/C: 0.22%
[48]
  viability, T/C: 0.23%

## CCN1CCN(Cc2ccc(Nc3ncc(F)c(-c4cc(F)c5nc(C)n(C(C)C)c5c4)n3)nc2)CC1 + COc1cc2nc(C)nc(NC(C)c3cc(N)cc(C(F)(F)F)c3)c2cc1OC1CCOC1
[2]
  IC50: 0.573 µM
[3]
  IC50: 0.578 µM
[4]
  IC50: 0.549 µM
[5]
  IC50: 0.12 µM
[36]
  IC50: 0.0666 µM
[37]
  viability, T/C: 97.6%
[38]
  viability, T/C: 98.1%
[12]
  viability, T/C: 96%
[13]
  viability, T/C: 80.6%
[14]
  viability, T/C: 66.2%
[15]
  viability, T/C: 35.7%
[39]
  viability, T/C: 93.2%
[40]
  viability, T/C: 92.6%
[18]
  viability, T/C: 92.2%
[19]
  viability, T/C: 72.2%
[20]
  viability, T/C: 67.9%
[21]
  viability, T/C: 36.2%
[41]
  viability, T/C: 90.3%
[42]
  viability, T/C: 88.9%
[24]
  viability, T/C: 86.7%
[25]
  viability, T/C: 76.8%
[26]
  viability, T/C: 63.1%
[27]
  viability, T/C: 36.3%
[43]
  viability, T/C: 63.5%
[44]
  viability, T/C: 70%
[30]
  viability, T/C: 55.3%
[31]
  viability, T/C: 49.9%
[32]
  viability, T/C: 43.3%
[33]
  viability, T/C: 26%
[45]
  viability, T/C: 83.2%
[46]
  viability, T/C: 74.5%
[47]
  viability, T/C: 69.7%
[48]
  viability, T/C: 39.1%
Second compound 10 µM, first compound 0.316 µM
  viability, T/C: 17.8%
Second compound 10 µM, first compound 1 µM
  viability, T/C: 7.16%

## CNCc1ccccc1-c1csc(C(C)Nc2nc(C)nc3cc(OC)c(OC)cc23)c1 (stereo unspecified)
Compound 0.1 µM
  viability, T/C: 95.8% [middle of 17 runs]
Compound 0.316 µM
  viability, T/C: 99.9% [middle of 16 runs]
Compound 10 µM
  viability, T/C: 0.17% [middle of 15 runs]
Compound alone, run of 07/12/2021
  IC50: 4.73 µM [middle of 6 runs]
Compound alone, run of 07/19/2021
  IC50: 4.58 µM [middle of 5 runs]
Compound alone, run of 07/26/2021
  IC50: 2.42 µM [middle of 6 runs]

## COc1cc2nccc(Oc3ccc(NC(=O)C4(C(=O)Nc5ccc(F)cc5)CC4)cc3)c2cc1OC + C=CC(=O)N1CCN(c2nc(OCC3CCCN3C)nc3c2CCN(c2cccc4cccc(C)c24)C3)CC1CC#N
[1]
  IC50: > 10 µM
[2]
  IC50: 9.1 µM
[3]
  IC50: 9.15 µM
[4]
  IC50: 6.79 µM
[5]
  IC50: 0.839 µM
[6]
  viability, T/C: 98.5%
[7]
  viability, T/C: 103%
[8]
  viability, T/C: 96.2%
[9]
  viability, T/C: 112%
[10]
  viability, T/C: 100%
[11]
  viability, T/C: 52.3%
[12]
  viability, T/C: 115%
[13]
  viability, T/C: 111%
[14]
  viability, T/C: 109%
[15]
  viability, T/C: 94.1%
[16]
  viability, T/C: 103%
[17]
  viability, T/C: 45%
[18]
  viability, T/C: 111%
[19]
  viability, T/C: 106%
[20]
  viability, T/C: 110%
[21]
  viability, T/C: 110%
[22]
  viability, T/C: 96%
[23]
  viability, T/C: 45.8%
[24]
  viability, T/C: 108%
[25]
  viability, T/C: 104%
[26]
  viability, T/C: 99.3%
[27]
  viability, T/C: 98.1%
[28]
  viability, T/C: 80.5%
[29]
  viability, T/C: 34.2%
[30]
  viability, T/C: 56.9%
[31]
  viability, T/C: 64.8%
[32]
  viability, T/C: 66.4%
[33]
  viability, T/C: 47.6%
[34]
  viability, T/C: 2.41%
[35]
  viability, T/C: 0.18%
